The source of these data is patent US6852909B2, “Process for producing female-sterile plants” (priority 1996, dated 2005).

Data set [1] deals with R. meliloti. In words: Sensitivity of R. meliloti to PTC and PTT. Format: cell-based, Rhizobium meliloti. From the text: Plasmids pIB17.1 and pIB17.2 were therefore transferred by means of a 2 factor cross into the Rhizobium meliloti strain 2011.
Data set [2] concerns Gram-positive and Gram-negative bacteria. The following applies: cited from earlier work.
Data set [3] deals with Botrytis cinerea. The following applies: cited from earlier work.
Data set [4] deals with plants. In words: Herbicidal activity, uptake, transport and deacetylation in plants. The data set is classed as in vivo. The following applies: for deacetylation activity in plants / uptake, transport and degradation in plants: in vivo; for herbicidal activity: plants without deacetylase gene. The text has this:
In this way, the above-described 2-gene system can be reduced to a 1-gene system and thereby crucially simplified, as explained in more detail below: any plants can be transformed with a Streptomycetes-derived deacetylase gene under the control of a tissue-specific promoter. Following application of N-acetylphosphinothricin or N-acetylphosphinothricin-tripeptide, the tissue-specific expression leads to the immediate death of the corresponding tissue.

Data set [5] concerns Nicotiana tabacum. Briefly: Treatment of Nicotiana tabacum plants carrying the deacetylase gene. The data set is classed as in vivo. The following applies: transgenic Nicotiana tabacum, killed by liberated PTC or PTT. On the procedure:
The deacetylase gene which was modified in Example 1 was transferred into A. tumefaciens LBA4404 using a two-factor cross. Nicotiana tabacum leaf disks were incubated with the resulting strains LBA4404/17.1 and LBA4404/17.2 and, after 3 days, transferred to a kanamycin-containing shoot-inducing medium. Southern hybridization can be used to test regenerating kanamycin-resistant shoots for the presence of the deacetylase gene.

The test system of data set [6] is wild-type plant. In words: Injection of N-acetyl-PTC or N-acetyl-PTT into tobacco plants: stability, transport, effect on wild-type plant. The data set is classed as in vivo.
For data set [7], the system named is GS. The following applies: E. coli with endogenous deacetylase activity.
Source text: The deacetylase converts N-Ac-PTC into PTC, which then inhibits the GS in a known manner, as can be measured in a γ-glutamyltransferase assay (Bender et al., J. Bacteriol. 129, 1001-1009, 1977).
The subject of data set [8] is glutamine synthetase (GS). The following applies: cited from earlier work.
Data set [9] has as its system plants. The following applies: in vivo; cited from earlier work.

In the case of `C[C@H](NC(=O)[C@H](C)NC(=O)[C@@H](N)CCP(C)(=O)O)C(=O)O` [PTT, phosphinothricylalanylalanine], the “sensitivity of R. meliloti” value in [1] was “reacts very sensitively”. For the same compound, in data set [2], the “activity against Gram-positive and Gram-negative bacteria” value was “active against Gram-positive and Gram-negative bacteria”. Besides, the “activity against the fungus Botrytis cinerea” value in data set [3] is reported as “also against the fungus Botrytis cinerea”.

For the compound `CC(=O)NC(CCP(C)(=O)O)C(=O)NC(C)C(=O)NC(C)C(=O)O` (stereo not drawn) [N-acetyl-PTT, N-acetylphosphinothricin tripeptide], in data set [4], the “deacetylation activity in plants” value is “No deacetylation activity”; the “uptake, transport and degradation in plants” value is “taken up by plants and transported and not degraded immediately”; the herbicidal activity result is given as “neither substance is herbicidally active”. In addition, the “effect on plants containing the deacetylase gene” value in data set [5] is reported as “the plants are then killed”. For the same compound, the “consequences for the wild-type plant” value in [6] is “Neither of the two substances has recognizably negative consequences”.

On to `CC(=O)NC(CCP(C)(=O)O)C(=O)O` (stereo not drawn) [N-acetyl-PTC, N-acetylphosphinothricin], for which, in data set [4], the “deacetylation activity in plants” value is on record as “No deacetylation activity”; the “uptake, transport and degradation in plants” value is “taken up by plants and transported and not degraded immediately”; the herbicidal activity entry is given as “neither substance is herbicidally active”. Besides, the “effect on plants containing the deacetylase gene” value in [5] is given as “the plants are then killed”. In data set [6] (in vivo), the “stability and transport in the plant cell” value is “stable in the plant cell and transported into all cells”. In [6], the “consequences for the wild-type plant” value is recorded as “Neither of the two substances has recognizably negative consequences”. Further, the “inhibition of GS activity after adding the substance” value in data set [7] is on record as “efficient inhibition of GS activity”.

For “2-amino-4-methylphosphinobutyric acid [PTC]”, the “sensitivity of R. meliloti” value in [1] is on record as “reacts very sensitively”. Besides, the “inhibitor of glutamine synthetase (GS)” value in [8] was “inhibitor of glutamine synthetase”. Further, the herbicidal action entry in data set [9] was “acts as a total herbicide”.
